This is an account of results in article PMC8532876, “Can Immobilized Artificial Membrane Chromatography Support the Characterization of Antimicrobial Peptide Origin Derivatives?” (Antibiotics, 2021).

Ends that are not written are not given here.

One series in a line: IAM-HPLC, chromatographic hydrophobicity index on an immobilized artificial membrane column. In kind it is physicochemical. As to conditions: IAM.PC.DD2 column, gradient 0–85% acetonitrile in 10-mM phosphoric buffer pH 7.4, 30.0 °C; calculated from retention time with calibration curve. As for the experimental part: All HPLC experiments were carried out using a Prominence-1 LC-2030C 3D HPLC system (Shimadzu, Tokyo, Japan) equipped with an IAM.PC.DD2 column (10 mm × 4.6 mm; particle size 10.0 µm with an IAM guard column; Regis Technologies, Austin Ave, Morton Grove, IL, USA) and diode array detection (DAD). The HPLC system was controlled by LabSolution software (version 5.90, Shimadzu, Japan). The stock solutions of the solutes were diluted to obtain 100-µg/mL concentrations, and the injected volume was 10 µL, which was used for the analytes. The IAM-HPLC analyses were performed with a linear gradient of 0–85% in phase B (where phase A was 10-mM phosphoric buffer at pH 7.4, and phase B was acetonitrile) at a flow rate of 1.5 mL/min. The ultrapure water used for the mobile phase preparation was purified by the Millipore Direct-Q 3 UVWater Purification System (Millipore Corporation, Bedford, MA, USA). The other reagents used for the preparation of the mobile phase: acetonitrile, sodium phosphate dibasic dehydrate, and sodium phosphate monobasic monohydrate (Sigma-Aldrich, Steinheim, Germany) were analytical grade. During the chromatographic analysis, the temperature of the column was constant at 30.0 °C, and the analysis time was 6.5 min. The CHIAM indices of the target solutes were obtained using a calibration set of the reference substances using the protocol developed by Valko and coworkers. The reference substances were purchased, respectively: octanonophenone and butyrophenone acetanilide (Alfa Aesar, Haverhill, MA, USA); acetaminophen, acetophenone, levofloxacin, and ciprofloxacin (Sigma-Aldrich, Steinheim, Germany); and heptanophenone, hexanophenone, valerophenone, propiophenone, and acetophenone (Acros Organic, Pittsburg, PA, USA). Figure 2 presents a correlations plot of the CHIIAM indices of the model substances and experimentally determined retention times.
As for `O=C(O)c1cn(C2CC2)c2cc(N3CCNCC3)c(F)cc2c1=O` [Ciprofloxacin], the CHIIAM is 19.70. Still for that read-out and setting: to `C[C@H]1COc2c(N3CCN(C)CC3)c(F)cc3c(=O)c(C(=O)O)cn1c23` [Levofloxacin] belongs 24.88; to “DVIKKVASVIG-NH2 [(4–14) Citropin, analog of citropin 1.1]”, 27.85. Same read-out and setting: to “DVIKKVASVIGGL-NH2 [(4–16) Citropin, analog of citropin 1.1]” belongs 38.24; to “GLFDVIK-NH2 [(1–7) Citropin, analog of citropin 1.1]”, 42.15.

Turning to “GLFDVIKASVIGGL-NH2 [(1–7)–(10–16) Citropin, analog of citropin 1.1]”, the CHIIAM is reported as 37.09. On the same count and under the same terms, to “GLFDVVIGGL-NH2 [(1–5)–(12–16) Citropin, analog of citropin 1.1]” belongs 28.66.

As for “KVASVIGGL-NH2 [(8–16) Citropin, analog of citropin 1.1]”, the CHIIAM is 45.95.

Test in another series: not given
The arrangement: method as in PMID 10906732, PMID 27084527. As to conditions: model substances of the IAM-HPLC calibration curve, protocol of Valko and coworkers ref 13, 14; cited from earlier work.
Take `CC(=O)c1ccccc1` [acetable]: the “CHIIAM of calibration set reference substances” value is 17.20. Regarding `CC(=O)Nc1ccc(O)cc1` [acetaminophen], the “CHIIAM of calibration set reference substances” value is listed as 2.90. As to `CC(=O)Nc1ccccc1` [acetanilidine], the “CHIIAM of calibration set reference substances” value is 11.50.

For `CCCC(=O)c1ccccc1` [butyrophenone], the “CHIIAM of calibration set reference substances” value is 32.00. For the compound `CCCCCCC(=O)c1ccccc1` [heptanophenone], the “CHIIAM of calibration set reference substances” value is 45.70. Take `CCCCCC(=O)c1ccccc1` [hexanophenone]: the “CHIIAM of calibration set reference substances” value is on record as 41.80. Regarding `CCCCCCCC(=O)c1ccccc1` [octanophenone], the “CHIIAM of calibration set reference substances” value was 49.4. For the compound `CCC(=O)c1ccccc1` [propiohenone], the “CHIIAM of calibration set reference substances” value is given as 25.90. On to `CCCCC(=O)c1ccccc1` [valerophenone], for which the “CHIIAM of calibration set reference substances” value was 37.30.
